{
  "source": "patent US20090149531A1",
  "about": "“CHEMICAL COMPOSITION DERIVED FROM P-HYDROXYPHENYL PROPIONIC ACID FOR THE TREATMENT OF PSORIASIS” (APOTEKNOS PARA LA PIEL, S.L., priority 2007, published 2009)",
  "key": {"[1]": {"system": "cell hyperproliferation in hairless rats", "assay": "Model of desquamation in hairless rats: corneous material extracted", "assay_type": "in vivo", "method": "The activity of compound A on cell hyperproliferation in hairless rats was evaluated using the model of desquamation in hairless rats described in the publication: Bräutigam, M., Hübner, H., Rach, P., Thieroff-Ekerdi, R. “Effects of Calcipotriol (MC 903) and Calcitriol after Topical Application on the Skin of Hairless Rats”, Skin Pharmacol 1992; 5:87-92.\n(§1) To do this Calcitriol was used as the reference product at 0.01% and compound A was used as the test product at 1% and 0.1% (100 μg/cm^2 and 10 μg/cm^2, respectively). A Control Group was included, administered only with the vehicle (absolute ethanol).\nThe animals were randomly distributed into the following experimental groups:\n(§2) The treatments were administered topically, once a day for 10 days (100 μg/side/animal). The animals were weighed on a daily basis throughout the study and the grade of erythema was evaluated (0=Absence of erythema, 1=Low grade erythema, 3=High grade erythema). On the last day of the study, day 11, the amount of corneous material extracted from the epidermis of the animals was evaluated."}, "[2]": {"assay": "Assessment of erythema in the hairless rat study", "assay_type": "in vivo, hairless rats", "conditions": "Calcitriol 0.01% topical once a day, 0=absence, 1=low grade, 3=high grade", "method": "as §1, §2"}, "[3]": {"assay": "Body weight in the hairless rat study", "assay_type": "in vivo, hairless rats", "conditions": "Calcitriol 0.01% topical once a day", "method": "as §1, §2"}, "[4]": {"assay": "Signs of toxicity and deaths in the hairless rat study", "assay_type": "in vivo", "method": "A Control Group was included, administered only with the vehicle (absolute ethanol).\nas §2"}, "[5]": {"conditions": "Calcitriol 0.01% (1 μg/cm^2) topical once a day for 10 days, day 11"}},
  "data": [
    {"smiles": "C=C1/C(=C\\C=C2/CCC[C@]3(C)[C@@H]([C@H](C)CCCC(C)(C)O)CC[C@@H]23)C[C@@H](O)C[C@@H]1O", "note": "[Calcitriol, 1-alpha,25-dihydroxycholecalciferol, reference compound]", "values": [
      {"measurement": "amount of corneous material extracted, total sum of the right and left flanks, Portal No, 1", "setting": "[1]; [5]", "value": "13.5 ± 4.89", "unit": "mg"},
      {"measurement": "amount of corneous material extracted, total sum of the right and left flanks, Portal No, 2", "setting": "[1]; [5]", "value": "7.7 ± 1.43", "unit": "mg"},
      {"measurement": "amount of corneous material extracted, total sum of the right and left flanks, Portal No, 3", "setting": "[1]; [5]", "value": "5.9 ± 0.94", "unit": "mg"},
      {"measurement": "amount of corneous material extracted, total sum of the right and left flanks, Portal No, 4", "setting": "[1]; [5]", "value": "4.5 ± 0.60", "unit": "mg"},
      {"measurement": "amount of corneous material extracted, total sum of the right and left flanks, Portal No, 5", "setting": "[1]; [5]", "value": "3.7 ± 0.35", "unit": "mg"},
      {"measurement": "amount of corneous material extracted, total sum of the right and left flanks, Portal No, 6", "setting": "[1]; [5]", "value": "21.7 ± 2.07", "unit": "mg"},
      {"measurement": "amount of corneous material extracted compared with the other experimental groups", "setting": "[1]; Calcitriol 0.01%, topical 0.2 ml/animal", "value": "clearly greater than that extracted in the other experimental groups"},
      {"measurement": "Assessment of erythema (mean grade)", "setting": "[2]; Baseline", "value": "0.0 ± 0.00"},
      {"measurement": "Assessment of erythema (mean grade)", "setting": "[2]; Day 2", "value": "0.0 ± 0.00"},
      {"measurement": "Assessment of erythema (mean grade)", "setting": "[2]; Day 3", "value": "0.0 ± 0.00"},
      {"measurement": "Assessment of erythema (mean grade)", "setting": "[2]; Day 4", "value": "0.0 ± 0.00"},
      {"measurement": "Assessment of erythema (mean grade)", "setting": "[2]; Day 5", "value": "0.0 ± 0.00"},
      {"measurement": "Assessment of erythema (mean grade)", "setting": "[2]; Day 6", "value": "0.0 ± 0.00"},
      {"measurement": "Assessment of erythema (mean grade)", "setting": "[2]; Day 7", "value": "0.0 ± 0.00"},
      {"measurement": "Assessment of erythema (mean grade)", "setting": "[2]; Day 8", "value": "1.0 ± 0.00"},
      {"measurement": "Assessment of erythema (mean grade)", "setting": "[2]; Day 9", "value": "1.5 ± 0.22"},
      {"measurement": "Assessment of erythema (mean grade)", "setting": "[2]; Day 10", "value": "2.0 ± 0.20"},
      {"measurement": "Assessment of erythema (mean grade)", "setting": "[2]; Day 11", "value": "2.0 ± 0.00"},
      {"measurement": "Body weight", "setting": "[3]; Baseline", "value": "0.0 ± 0.00", "unit": "g"},
      {"measurement": "Body weight", "setting": "[3]; Day 2", "value": "0.0 ± 0.00", "unit": "g"},
      {"measurement": "Body weight", "setting": "[3]; Day 3", "value": "0.0 ± 0.00", "unit": "g"},
      {"measurement": "Body weight", "setting": "[3]; Day 4", "value": "0.0 ± 0.00", "unit": "g"},
      {"measurement": "Body weight", "setting": "[3]; Day 5", "value": "0.0 ± 0.00", "unit": "g"},
      {"measurement": "Body weight", "setting": "[3]; Day 6", "value": "0.0 ± 0.00", "unit": "g"},
      {"measurement": "Body weight", "setting": "[3]; Day 7", "value": "0.0 ± 0.00", "unit": "g"},
      {"measurement": "Body weight", "setting": "[3]; Day 8", "value": "1.0 ± 0.00", "unit": "g"},
      {"measurement": "Body weight", "setting": "[3]; Day 9", "value": "1.5 ± 0.22", "unit": "g"},
      {"measurement": "Body weight", "setting": "[3]; Day 10", "value": "2.0 ± 0.20", "unit": "g"},
      {"measurement": "Body weight", "setting": "[3]; Day 11", "value": "2.0 ± 0.00", "unit": "g"},
      {"measurement": "animals that died before the end of the study", "setting": "[4]; Calcitriol 0.01% group (n 6), repeated administration", "value": "Three"},
      {"measurement": "signs of toxicity", "setting": "[4]; rat, in vivo", "value": "clear signs of toxicity were detected"}
    ]}
  ]
}
